Source: patent US12492232B2, “Methods for producing proteins” (South Australian Health and Medical Research Institute …, priority 2018, dated 2025)
Entries after “also recorded” stand apart in the source; their conditions may differ.

Columns and labels:
Assay type in all cases: cell-based
mTORC1 signalling = mTORC1 signalling (Western blot, S6K1 and rpS6) in transfected CHO cells starved of serum and amino acids, with or without TSC1/2 co-transfection
Procedure: GTP. GST-Rheb bound to GDP or GTP was pulled down using glutathione beads and the nucleotides were then separated by thin-layer chromatography and visualized by phosphorimager. The positions of GDP and GTP are shown (FIG. 1A). […] FIGS. 1C-1D: CHO cells were co-transfected using Lipofectamine 3000 with vectors encoding wildtype (WT) Rheb or the indicated mutants and TSC1/2 as indicated. 36 h after transfection, cells were transferred to Ham's F12 media lacking FBS for 16 h. Cells were the transferred to Dulbecco's phosphate-buffered saline (D-PBS, which lacks amino acids) for 1 h before cell lysates were harvested for SDS-PAGE and Western Blotting analysis using the indicated antibodies.

CHO cells = experiment: Growth of transfected CHO cells in medium with 10%, 1%, 0.5% or 0% FBS (cell counts over 7 days)
Procedure: CHO cells were seeded into 24-well plates at 5,000 cells/well. […] 24 h after transfection, cells were transferred to medium containing 10%, 1%, 0.5% or 0% FBS as indicated. Every 24 h for 7 days, cells were trypsinized (from different dishes on each occasion) and counted on a haemocytometer. Growth medium was changed every 2 days.
CHO cells were seeded into 24-well plates at 5,000 cells/well. […] 24 h after transfection, cells were transferred to media (Ham's F12 from Life Technologies, Cat. No. 11765054) containing 10%, 1%, 0.5% or 0% foetal bovine serum, as indicated. Cells were trypsinized and counted on a haemocytometer every 24 h for 7 days. Growth medium was changed every 2 days.

[1] = tested on: CHO cells stably expressing Firefly luciferase (FLuc); experiment: Firefly luciferase assay in CHO cells stably expressing FLuc transfected with Rheb vectors; details: day 7, normalised to cell number
Procedure: CHO cells stably expressing Firefly luciferase (FLuc) or Gaussia luciferase (GLuc) as indicated were transfected using Lipofectamine3000 with an empty vector (EV) or vectors for Rheb WT, S21L, T23M, G29S, Y35N or E40K and also treated with the mTOR inhibitor AZD8055 at 100 nM for the total duration where indicated. Fluc and GLuc assays were performed 24 h after transfection and then every 48 h for 7 days. Assay results are normalised to cell number. GLuc-CHO cells were harvested for SDS-PAGE and Western Blot analysis at the 168 h (7-day) time-point to probe for intracellular GLuc, FLAG (Rheb) and actin, as ‘loading control’. […] In (E), secreted GLuc was monitored every 4 h from 24 h to 60 h showing the rate of secretion of GLuc was higher when Rheb-T23M is expressed as compared to Rheb-Y35N. The pattern for intracellular levels of Gaussia luciferase (assessed by immunoblot of cell lysates harvested at 7 days post transfection) more closely resemble those intracellular firefly luciferase (F) with little change compared to either the empty vector or WT while still retaining heightened mTORC1 signalling as indicated by the elevated levels of P-S6K1 Thr389 compared to cells transfected with the empty vector. […]

[2] = tested on: CHO cells stably expressing Gaussia luciferase (GLuc); experiment: Secreted Gaussia luciferase assay in CHO cells stably expressing GLuc transfected with Rheb vectors
Procedure: CHO cells stably expressing Firefly luciferase (FLuc) or Gaussia luciferase (GLuc) as indicated were transfected using Lipofectamine3000 with an empty vector (EV) or vectors for Rheb WT, S21L, T23M, G29S, Y35N or E40K and also treated with the mTOR inhibitor AZD8055 at 100 nM for the total duration where indicated. Fluc and GLuc assays were performed 24 h after transfection and then every 48 h for 7 days. Assay results are normalised to cell number. GLuc-CHO cells were harvested for SDS-PAGE and Western Blot analysis at the 168 h (7-day) time-point to probe for intracellular GLuc, FLAG (Rheb) and actin, as ‘loading control’. […] However, Rheb-T23M and —Y35N caused a significant 3-fold increase in secreted Gaussia luciferase that was also seen with E40K and was prevented by treatment with AZD8055 (C/D [histogram of day 7]). In (E), secreted GLuc was monitored every 4 h from 24 h to 60 h showing the rate of secretion of GLuc was higher when Rheb-T23M is expressed as compared to Rheb-Y35N. The pattern for intracellular levels of Gaussia luciferase (assessed by immunoblot of cell lysates harvested at 7 days post transfection) more closely resemble those intracellular firefly luciferase (F) with little change compared to either the empty vector or WT while still retaining heightened mTORC1 signalling as indicated by the elevated levels of P-S6K1 Thr389 compared to cells transfected with the empty vector. CHO cells expressing Rheb-T23M, Y35N and E40K show a small increases in general protein synthesis but a marked increase in secreted Gaussia protein that is blocked by mTOR inhibition. Thus, Rheb[T23M] selectively promotes production of the secreted protein GLuc in a process that requires mTOR signalling.
Constructs were introduced into CHO cells using Lipofectamine3000 (Life Technologies) according to the manufacturer's protocol. Cell lines stably expressing secreted luciferase were generated by cloning the GLuc gene with a signal sequence from Nanolight Technology (see paper sent with this version) and cloning this into the pcDNA4 commercially available vector where gene expression was driven by a CMV promoter. The subsequent vectors were transfected, using lipofectamine, into CHO-S freestyle suspension cells and grown in CD-CHO media and then stable transfectant pools selected by addition of zeocin antibiotic. Once stable pools had emerged these were subjected to limited dilution cloning to obtain a range of pools with different secreted GLuc expression levels. Methods as are described, for example, in Josse et al. (2009) Biotechnology and Bioengineering 105: 556-566.
For Gaussia luciferase, we employed the BioLux® Gaussia Luciferase Assay Kit (New England Biolabs (NEB), Cat. No. E3300S) and for firefly luciferase the Luciferase Assay System from Promega (Cat. No. E1500). Cells were grown in Ham's F12 medium F12 nutrient mix, Ham's (Life Technologies, Cat. No. 11765054).
CHO cells stably expressing Firefly luciferase (FLuc; which is cytoplasmic) or Gaussia luciferase (GLuc; which is secreted) as indicated were transfected using Lipofectamine3000 with an empty vector (EV) or vectors for Rheb WT, S21L, T23M, G29S, Y35N or E40K and treated with the mTOR inhibitor AZD8055 at 100 nM for the total duration where appropriate. Fluc and GLuc assays were performed at 24 h after transfection and then every 48 h for 7 days. Assay results were normalised to cell number. […]

ExpiCHO-S™ cells = experiment: Rabbit IgG secretion by ExpiCHO-S cells stably expressing Rheb variants (Easy-Titer Rabbit IgG Assay); details: single replicate; compared to Rheb-WT or Rheb-Y35N
Procedure: Materials and Methods: ExpiCHO-S™ cells were purchased from ThermoFischer Scientific and cultured in ExpiCHO™ Expression Medium at 37° C. at 8% CO2. […] Transfected cells were grown in 600 μg/mL […] for 6 weeks. Surviving cells were plated as single cells in a 96-well plate and monoclonal colonies selected for FLAG-Rheb expression.
Rabbit IgG secretion was determined using the ExpiCHO™ Expression system according to the manufacturer's instructions. Briefly, ExpiCHO™ cells expressing either endogenous Rheb or stably expressing exogenous Rheb were seeded at 6×10^6 cells/mL in 25 mL of ExpiCHO™ Expression Medium and transfected with 20 μg of a pcDNA3.1 vector encoding heavy and light chains of Rabbit IgG at a 1:2 ratio of heavy chain:light chain using ExpiFectamine™ CHO Reagent. 24 hours after transfection, cells were feed with ExpiCHO™ Feed and ExpiFectamine™ CHO Enhancer and transferred to 32° C., 5% CO2. Cells were allowed to grow for 10 days with 100 μL samples taken every day. After 10 days, Cells were pelleted by centrifugation at 4000×g for 30 minutes at 4° C. and the supernatant filtered through a […] PVFD filter and collected. IgG yield was determined using Easy-Titer™ Rabbit IgG Assay kit and calculated from a standard curve.

[3] = tested on: mTORC1 and ER Stress activation markers; experiment: Western blot for mTORC1 and ER stress activation markers in ExpiCHO cells stably expressing Rheb variants

Rheb-T23M: human Rheb protein with a methionine variant at residue 23 (T23M), SEQ ID NO. 3
mTORC1 signalling in the absence of upstream activation (mTORC1 signalling; no serum 16 h, D-PBS 1 h, compared to empty vector and Rheb-WT): increased mTORC1 signalling over both the empty vector and Rheb-WT | mTORC1 signalling when co-transfected with TSC1/TSC2 (mTORC1 signalling; no serum and amino acids, co-transfected with TSC1/TSC2): no reduction | cell growth in serum-free medium (CHO cells; 0% FBS): allows CHO cells to grow efficiently in serum-free medium | cell growth in 0.5% FBS (CHO cells; 0.5% FBS): significant growth advantage over the other Rheb mutants; also recorded: substantially greater proliferation | cell growth in medium with 10% and 1% FBS (CHO cells; 10% or 1% FBS): no effect on cell growth | increase in synthesis of intracellular Firefly luciferase compared to the empty vector [1]: ca. 1.2 fold | increase in secreted Gaussia luciferase ([2]; day 7, normalised to cell number): 3 fold | rate of secretion of GLuc ([2]; monitored every 4 h from 24 h to 60 h, compared to Rheb-Y35N): higher | rate of IgG secretion determined daily over 10 days (ExpiCHO-S™ cells): maintain a constant rate of IgG secretion over a longer period | ER stress response (Western blot markers) [3]: mild ER stress response | mTORC1 signalling (Western blot markers) [3]: increased mTORC1 signalling
